Read-outs that look alike come from different tables or passages of the source.
Experiments:
GST-PPARG-LBD = GST-PPARG-LBD (Homo sapiens (Human), UniProt P37231); experiment: Lanthascreen PPARG competitive binding assay (Invitrogen, TR-FRET); conditions: inc = incomplete curve, NA = not active; for IC50: read-out: IC50 (nM) Lantha
Description: Lanthascreen PPARG Competitive Binding Assay (Invitrogen)
The assay was performed according to manufacturer protocol. A mixture of […], 5 nM Tb-GST-antibody, 5 nM Fluormone Pan-PPAR Green, and serial dilutions of the experimental compound, beginning at 10 μM downwards, was added to wells of black 384-well low-volume plates (Greiner) to a total volume of 18 μL. All dilutions were made in TR-FRET assay buffer C. DMSO at 2% final concentration was used as a no-ligand control. Experiment was performed in triplicate, and incubated for 2 hours in the dark prior to assay read in Perkin Elmer ViewLux ultra HTS microplate reader. FRET signal was measured by excitation at 340 nm and emission at 520 nm for fluorescein and 490 nm for terbium. Fold change over DMSO was calculated using GraphPad Prism Software (La Jolla, Calif.) by calculating 520 nm/490 nm ratio. Graphs were plotted as fold change of FRET signal for compound treatment over DMSO-only control.

[1] = molecular target: Gal-4-PPAR (human PPAR LBD fused to GAL4 DNA-binding domain) (Homo sapiens (Human), UniProt P37231); experiment: GAL4-PPARG LBD / UAS-luciferase transactivation assay in HEK 293T cells; format: cell-based; conditions: for EC50: GAL4 transactivation, HEK 293T cells, NA = not active, read-out: EC50 (nM) GAL4; for activation at 10 µM: HEK-293T, 18 h, read-out: % transactivation at 10 μM (GAL4)
[2] = Lanthascreen PPARG competitive binding
[3] = Lanthascreen competitive binding

GST-PPARG-LBD, sequence (P37231 238-503): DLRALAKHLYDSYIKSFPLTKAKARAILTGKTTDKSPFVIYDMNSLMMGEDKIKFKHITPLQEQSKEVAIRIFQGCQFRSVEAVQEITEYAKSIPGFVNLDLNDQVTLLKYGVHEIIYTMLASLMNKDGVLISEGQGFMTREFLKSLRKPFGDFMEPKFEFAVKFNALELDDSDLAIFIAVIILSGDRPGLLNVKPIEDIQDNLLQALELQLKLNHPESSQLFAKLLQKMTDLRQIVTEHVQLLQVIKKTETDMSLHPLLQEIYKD
Gal-4-PPAR (human PPAR LBD fused to GAL4 DNA-binding domain), sequence (P37231 238-503): as above

SMILES | EC50 [1] [nM] | activation at 10 µM [1] [%] | IC50 (GST-PPARG-LBD; [3]) [nM] | also measured
Cc1c(C)n(Cc2ccc(-c3ccccc3C#N)cc2)c2ccc(C(=O)N[C@@H](C)c3ccc(OC(F)(F)F)cc3)cc12 [Example 279, (S)-1-((2′-cyano-[1,1′-biphenyl]-4-yl)methyl)-2,3-dimethyl-N-(1-(4-(trifluoromethoxy)phenyl)ethyl)-1H-indole-5-carboxamide] | – | – | – | IC50 (nM) Lantha (GST-PPARG-LBD; [2]): inc
Cc1c(C)n(Cc2ccc(-c3ccccc3C#N)cc2)c2ccc(C(=O)N[C@@H](C)c3ccc(F)cc3F)cc12 [Example 286, (S)-1-((2′-cyano-[1,1′-biphenyl]-4-yl)methyl)-N-(1-(2,4-difluorophenyl)ethyl)-2,3-dimethyl-1H-indole-5-carboxamide] | – | – | – | IC50 (nM) Lantha (GST-PPARG-LBD; [2]): inc
Cc1ccc([C@H](C)NC(=O)c2ccc3c(c2)c(C)c(C)n3Cc2ccc(-c3ccccc3C#N)cc2)cc1 [Example 288, (S)-1-((2′-cyano-[1,1′-biphenyl]-4-yl)methyl)-2,3-dimethyl-N-(1-(p-tolyl)ethyl)-1H-indole-5-carboxamide] | – | – | – | IC50 (nM) Lantha (GST-PPARG-LBD; [2]): inc
Cc1c(C)n(Cc2ccc(-c3ccccc3S(N)(=O)=O)cc2)c2ccc(C(=O)N[C@@H](C)c3cccc(C(C)C)c3)cc12 [Example 247, (S)—N-(1-(3-isopropylphenyl)ethyl)-2,3-dimethyl-1-((2′-sulfamoyl-[1,1′-biphenyl]-4-yl)methyl)-1H-indole-5-carboxamide] | – | – | > 1000 | –
C[C@H](NC(=O)c1ccc2c(ccn2Cc2ccc(-c3cccc(Cl)c3)cc2)c1)c1ccc([N+](=O)[O-])cc1 [Example 58, (S)-1-((3′-Chloro-[1,1′-biphenyl]-4-yl)methyl)-N-(1-(4-nitrophenyl)ethyl)-1H-indole-5-carboxamide] | – | – | > 1000 | –
Cc1c(C)n(Cc2ccc(-c3ccccc3C(=O)O)cc2)c2ccc(C(=O)N(C)Cc3ccccc3)cc12 [compound 3, 4′-((5-(Benzyl(methyl)carbamoyl)-2,3-dimethyl-1H-indol-1-yl)methyl)biphenyl-2-carboxylic acid] | – | – | 206 | –
C[C@H](NC(=O)c1ccc2c(ccn2Cc2ccc(-c3cccc(N)c3)cc2)c1)c1ccc([N+](=O)[O-])cc1 [Example 52, (S)-1-((3′-Amino-[1,1′-biphenyl]-4-yl)methyl)-N-(1-(4-nitrophenyl)ethyl)-1H-indole-5-carboxamide] | – | – | > 1000 | –
Cc1c(C)n(Cc2ccc(-c3ccccc3C(=O)O)cc2)c2ccc(C(=O)NCc3cccc4ccccc34)cc12 [Example 115, 4′-((2,3-dimethyl-5-(naphthalen-1-ylmethylcarbamoyl)-1H-indol-1-yl)methyl)biphenyl-2-carboxylic acid] | – | – | 64 | –
Cc1c(C)n(Cc2ccc(-c3ccccc3C#N)cc2)c2ccc(C(=O)N[C@@H](C)c3cccc(C(C)(C)C)c3)cc12 [Example 185, (S)—N-(1-(3-(tert-butyl)phenyl)ethyl)-1-((2′-cyano-[1,1′-biphenyl]-4-yl)methyl)-2,3-dimethyl-1H-indole-5-carboxamide] | – | – | – | IC50 (nM) Lantha (GST-PPARG-LBD; [3]): inc
COc1cc(CNC(=O)c2ccc3c(c2)c(C)c(C)n3Cc2ccc(-c3ccccc3C(=O)O)cc2)cc(OC)c1 [compound 22, 4′-((5-(3,5-Dimethoxybenzylcarbamoyl)-2,3-dimethyl-1H-indol-1-yl)methyl)biphenyl-2-carboxylic acid] | – | – | 10 | –
Cc1c(C)n(Cc2ccc(-c3ccccc3C(=O)O)cc2)c2ccc(C(=O)N[C@@H](C)c3cc(Cl)ccn3)cc12 [Example 265, (S)-4′-((5-((1-(4-chloropyridin-2-yl)ethyl)carbamoyl)-2,3-dimethyl-1H-indol-1-yl)methyl)-[1,1′-biphenyl]-2-carboxylic acid] | – | – | 4 | –
C[C@H](NC(=O)c1ccc2c(ccn2Cc2ccc(-c3ccc(C(=O)O)cc3)cc2)c1)c1ccc([N+](=O)[O-])cc1 [Example 59, (S)-4′-((5-((1-(4-Nitrophenyl)ethyl)carbamoyl)-1H-indol-1-yl)methyl)-[1,1′-biphenyl]-4-carboxylic acid] | – | – | > 1000 | –
C[C@H](NC(=O)c1ccc2c(ccn2Cc2ccc(-c3ccccc3O)cc2)c1)c1ccc([N+](=O)[O-])cc1 [Example 40, (S)-1-((2′-Hydroxy-[1,1′-biphenyl]-4-yl)methyl)-N-(1-(4-nitrophenyl)ethyl)-1H-indole-5-carboxamide] | – | – | > 1000 | –
Cc1c(C)n(Cc2ccc(-c3ccccc3S(=O)(=O)NC(C)(C)C)cc2)c2ccc(C(=O)N[C@@H](C)c3cccc(C(C)C)c3)cc12 [Example 246, (S)-1-((2′-(N-(tert-butyl)sulfamoyl)-[1,1′-biphenyl]-4-yl)methyl)-N-(1-(3-isopropylphenyl)ethyl)-2,3-dimethyl-1H-indole-5-carboxamide] | – | – | > 1000 | –
Cc1c(C)n(Cc2ccc(-c3ccccc3C(=O)O)cc2)c2ccc(C(=O)NCc3ccc(Cl)cc3Cl)cc12 [Example 168, 4′-((5-((2,4-dichlorobenzyl)carbamoyl)-2,3-dimethyl-1H-indol-1-yl)methyl)-[1,1′-biphenyl]-2-carboxylic acid] | 931 | 18 | – | –
Cc1c(C)n(Cc2ccc(-c3ccccc3C#N)cc2)c2ccc(C(=O)N[C@@H](C)c3ccccc3)cc12 [Example 291, (S)-1-((2′-cyano-[1,1′-biphenyl]-4-yl)methyl)-2,3-dimethyl-N-(1-phenylethyl)-1H-indole-5-carboxamide] | – | – | – | IC50 (nM) Lantha (GST-PPARG-LBD; [2]): inc
CCc1ccc([C@H](C)NC(=O)c2ccc3c(c2)c(C)c(C)n3Cc2ccc(-c3ccccc3C#N)cc2)cc1 [Example 289, (S)-1-((2′-cyano-[1,1′-biphenyl]-4-yl)methyl)-N-(1-(4-ethylphenyl)ethyl)-2,3-dimethyl-1H-indole-5-carboxamide] | – | – | – | IC50 (nM) Lantha (GST-PPARG-LBD; [2]): inc
Cc1c(C)n(Cc2ccc(-c3ccccc3C(=O)O)cc2)c2ccc(C(=O)N[C@H](C)c3ccc(S(C)(=O)=O)cc3)cc12 [Example 276, (R)-4′-((2,3-dimethyl-5-(1-(4-(methylsulfonyl)phenyl)ethylcarbamoyl)-1H-indol-1-yl)methyl)biphenyl-2-carboxylic acid] | – | – | – | IC50 (GST-PPARG-LBD; [2]): 11 nM
Cc1c(C)n(Cc2ccc(-c3ccccc3C(=O)O)cc2)c2ccc(C(=O)NCc3ccc(C(F)(F)F)cc3F)cc12 [Example 167, 4′-((5-((2-fluoro-4-(trifluoromethyl)benzyl)carbamoyl)-2,3-dimethyl-1H-indol-1-yl)methyl)-[1,1′-biphenyl]-2-carboxylic acid] | 596 | 10 | – | –

Second part, led by results:

EC50 [1] [nM] | activation at 10 µM [1] [%] | SMILES | IC50 (GST-PPARG-LBD; [3]) [nM] | also measured
941 | 10 | Cc1c(C)n(Cc2ccc(-c3ccccc3C(=O)O)cc2)c2ccc(C(=O)N[C@@H](C)c3ccc(OC(C)C)cc3)cc12 [Example 201, (S)-4′-((5-((1-(4-isopropoxyphenyl)ethyl)carbamoyl)-2,3-dimethyl-1H-indol-1-yl)methyl)-[1,1′-biphenyl]-2-carboxylic acid] | – | –
169 | 35 | CC[C@@H](NC(=O)c1ccc2c(c1)c(C)c(C)n2Cc1ccccc1-c1ccc(C(=O)O)cc1)c1ccccc1 [Example 195, (R)-2′-((2,3-dimethyl-5-((1-phenylpropyl)carbamoyl)-1H-indol-1-yl)methyl)-[1,1′-biphenyl]-4-carboxylic acid] | – | –
– | 0 | Cc1c(C)n(Cc2ccc(-c3ccccc3C(=O)O)cc2)c2ccc(C(=O)N[C@H]3CCN(C(=O)OCc4ccccc4)C3)cc12 [Example 204, (S)-4′-((5-((1-((benzyloxy)carbonyl)pyrrolidin-3-yl)carbamoyl)-2,3-dimethyl-1H-indol-1-yl)methyl)-[1,1′-biphenyl]-2-carboxylic acid] | – | –
193 | 5 | Cc1c(C)n(Cc2ccc(-c3ccccc3C(=O)O)cc2)c2ccc(C(=O)N[C@@H](C)c3ccc(Cl)c(C(F)(F)F)c3)cc12 [Example 222, (S)-4′-((5-((1-(4-chloro-3-(trifluoromethyl)phenyl)ethyl)carbamoyl)-2,3-dimethyl-1H-indol-1-yl)methyl)-[1,1′-biphenyl]-2-carboxylic acid] | – | –
2750 | 10 | Cc1c(C)n(Cc2ccc(-c3ccccc3C(=O)O)cc2)c2ccc(C(=O)N[C@@H](C)c3cccc(OC(C)C)c3)cc12 [Example 199, (S)-4′-((5-((1-(3-isopropoxyphenyl)ethyl)carbamoyl)-2,3-dimethyl-1H-indol-1-yl)methyl)-[1,1′-biphenyl]-2-carboxylic acid] | – | –
793 | 18 | CC[C@H](NC(=O)c1ccc2c(c1)c(C)c(C)n2Cc1ccccc1-c1cccc(C(=O)O)c1)c1ccccc1 [Example 194, (S)-2′-((2,3-dimethyl-5-((1-phenylpropyl)carbamoyl)-1H-indol-1-yl)methyl)-[1,1′-biphenyl]-3-carboxylic acid] | – | –
191 | 40 | CC[C@@H](NC(=O)c1ccc2c(c1)c(C)c(C)n2Cc1ccccc1-c1cccc(C(=O)O)c1)c1ccccc1 [Example 193, (R)-2′-((2,3-dimethyl-5-((1-phenylpropyl)carbamoyl)-1H-indol-1-yl)methyl)-[1,1′-biphenyl]-3-carboxylic acid] | – | –

— patent publication US8957093B2, “N-biphenylmethylindole modulators of PPARG” (The Scripps Research Institute, priority 2011, dated 2015)
